From ChEMBL document CHEMBL1145752, “Dissociation of antibacterial and hemolytic activities of an amphipathic peptide antibiotic” (2003) come the findings set out here.

Common to all, as to type: functional
A short description of test [1]: Tested for minimum concentration for hemolysis of fresh human erythrocytes.
Test [2] has as its system Bacillus subtilis. The test can be described thus: Inhibitory activity was determined against bacillus subtilis (ATCC 82).
Test [3] deals with Bacillus subtilis. The test can be described thus: Ratio of minimum hemolysis concentration to that of minimum inhibitory concentration.

The structures appear in SMILES notation. In brackets after ≈: the same amount, converted by molar mass.

For `CC(C)C[C@@H]1NC(=O)[C@H](CCCN)NC(=O)[C@H](C(C)C)NC(=O)[C@H](C)NC(=O)[C@H](CCC(N)=O)NC(=O)[C@H](CC(N)=O)NC(=O)[C@@H](Cc2ccccc2)NC(=O)[C@H](Cc2ccccc2)NC(=O)[C@@H]2CCCN2C(=O)[C@@H](Cc2ccccc2)NC1=O`, in test [1], the MHC came out at 14 µg/mL. Further, the minimal inhibitory concentration (MIC) (as a rule, the lowest concentration found to suppress growth) in test [2] was 14 µg/mL (≈ 11.9 µM). Further, the Ratio in test [3] was found to be 1.
